Experimental data as given in paper PMC12980401 (Science translational medicine, 2025).

Tests used:
HFD-fed rats = assay type: in vivo, rat
[1] = tested on: chow-fed and HFD-fed rats; experiment: Oral glucose tolerance test; assay type: in vivo, rat; settings: for Glucose-stimulated plasma insulin: OGTT
[2] = tested on: chow-fed and HFD-fed rats; experiment: Insulin tolerance test; assay type: in vivo, rat; settings: fourth ICV TDN 200 μg/2 μl
musk shrew = experiment: Food intake, body weight and emesis in musk shrews; assay type: in vivo, Suncus murinus; settings: intraperitoneal 5 mg/kg; for Food intake in musk shrews: n = 9
Half-life in rat serum = assay type: in vitro ADME
lean and DIO mice = experiment: Food intake and body weight after intraperitoneal injection in mice; assay type: in vivo, mouse
DIO mice = experiment: Hyperinsulinemic-euglycemic clamp in DIO mice; assay type: in vivo, mouse; settings: single intraperitoneal 5 mg/kg before insulin infusion, vehicle 18%
chow-fed rats [3] = experiment: Counterregulatory response to hindbrain glucoprivation; assay type: in vivo, rat
chow-fed rats [4] = assay type: in vivo, rat
rats = experiment: Kaolin intake; settings: fourth ICV 20 μg
chow-fed rats [5] = experiment: Telemetry of core body temperature, physical activity and heart rate; settings: lateral ventricle, high dose ODN (100 μg), TDN 20 and 100 μg
[6] = HFD-fed rats, lateral ventricle 200 μg/2 μl
[7] = HFD-fed rats, fourth ICV TDN 200 μg/2 μl

Molecule: tridecaneuropeptide [TDN]
- 24-hour body weight (HFD-fed rats; [6]): without an impact on body weight
- 24-hour food intake (HFD) (HFD-fed rats; [6]): suppressed 24-hour food intake
- OGTT AUC [1, 7]: lowered the OGTT AUC
- Glucose-stimulated plasma insulin [1, 7]: without heightening glucose-stimulated plasma insulin concentrations
- Insulin sensitivity during insulin tolerance test [2]: improved by fourth ICV TDN
- 24-hour body weight change in musk shrews (musk shrew): without altering 24-hour weight change
- Food intake in musk shrews (musk shrew): suppressed 24-hour food intake
- Half-life in rat serum (Half-life in rat serum; rat, serum): 21.2 min
- Body weight loss over 9 days (lean and DIO mice; DIO mice, daily intraperitoneal 5 mg/kg for 9 days): 4.7%
- Daily HFD intake (lean and DIO mice; DIO mice, daily intraperitoneal 5 mg/kg for 9 days, n = 6): suppressed HFD intake immediately on day 1
- 24-hour food intake and body weight (lean and DIO mice; lean mice, peripheral administration 5 mg/kg): no effect in lean mice
- Suppression of endogenous glucose appearance (Ra) relative to baseline (DIO mice): 57%

Molecule: O=C[C@H](O)[C@@H](O)[C@H](O)[C@H](S)CO [5-TG, 5-thio-D-glucose]
- Food intake after glucoprivic agent (chow-fed rats [3]; lean rats, fourth ICV 210 μg at dark cycle onset, versus vehicle): increased food intake at 1 and 24 hours after injection

Molecule: octadecaneuropeptide [ODN]
- 24-hour body weight change (chow-fed rats [4]; lean chow-fed rats, fourth ICV ODN 0.2, 2 and 20 μg): without affecting 24-hour body weight
- Time to consume the first bout of food (latency) (chow-fed rats [4]; lean chow-fed rats, fourth ICV, 2 μg): delayed
- Size of the first meal (chow-fed rats [4]; lean chow-fed rats, fourth ICV, 20 μg): reduced
- 24-hour food intake and body weight (HFD-fed rats; HFD-maintained rats, fourth ICV, 20 μg): decreasing 24-hour food intake and body weight
- Meal duration 6 to 12 hours postinjection (HFD-fed rats; HFD-maintained rats, fourth ICV, highest dose (20 μg)): decreased meal duration
- Plasma glucagon after intraperitoneal insulin (chow-fed rats [3]; fourth ICV ODN 20 μg 15 min before ip insulin 0.75 U/kg, chow-fed rats): lowered plasma glucagon concentrations 30 min after intraperitoneal insulin
- 5-TG-induced hyperglycemia (1-hour blood glucose) (chow-fed rats [3]; lean rats, fourth ICV ODN 20 μg pretreatment before 5-TG 210 μg): blunted 5-TG–induced hyperglycemia 1 hour after injection
- 5-TG-mediated hyperphagia (chow-fed rats [3]; lean rats, fourth ICV ODN 20 μg/2 μl pretreatment before 5-TG 210 μg): suppressed 5-TG–mediated hyperphagia at the 4-hour time point
- Circulating free fatty acids after 5-TG (chow-fed rats [3]; plasma 30 min, fourth ICV ODN 20 μg before 5-TG): suppressed by hindbrain ODN pretreatment
- Glucose tolerance (OGTT) ([1]; DIO rats, fourth ICV 200 μg): markedly improved
- OGTT area under the curve ([1]; lean rats, fourth ICV 200 μg (higher dose)): reduced the overall area under the curve
- Glucose-stimulated plasma insulin ([1]; lean rats, fourth ICV 200 μg): without enhancing glucose-stimulated plasma insulin
- 24-hour body weight change in musk shrews (musk shrew): without affecting body weight at 24 hours
- Emetic episodes in musk shrews (musk shrew): caused no emetic episodes
- Food intake in musk shrews (musk shrew): suppressed food intake at 6 and 24 hours after injection
- Half-life in rat serum (Half-life in rat serum; rat serum, average half-life (fig. S6, I and J)): 12.4 min
- Kaolin intake (rats): did not cause kaolin intake
- Telemetry variables at individual hours (chow-fed rats [5]): decreased locomotor activity at hour 8

B1: recombinant DBI protein: recombinant diazepam binding inhibitor protein, parent of ODN (protein, UniProt P07108 2-87, looked up)
Acyl-CoA-binding protein: SQAEFEKAAEEVRHLKTKPSDEEMLFIYGHYKQATVGDINTERPGMLDFTGKAKWDAWNELKGTSKEDAMKAYINKVEELKKKYGI
- Chow intake (chow-fed rats [4]; chow-maintained rats, fourth ICV 2 μg/2 μl): suppressed chow intake at 6 and 12 hours postinjection
- HFD intake (HFD-fed rats; HFD-maintained rats, fourth ICV 2 μg/2 μl): without affecting HFD intake
